Experimental data: patent US9227967B2, “Inhibitor compounds of semicarbazide-sensitive amine oxidases” (Proximagen Limited, priority 2010, dated 2016)
Structures can show the parent of a compound that is named as a salt.

These molecules were tested against T1, human SSAO (Homo sapiens, UniProt Q16853) (assay: SSAO enzyme inhibition assay (benzylamine substrate; HRP-coupled hydrogen peroxide detection or 14C-benzaldehyde detection)). Conditions: purified recombinantly expressed human SSAO, benzylamine as substrate, r.t.; read-out: SSAO inhibitory activity IC50.
T1 construct: made in house
T1 sequence (Q16853 29-763 limits assumed): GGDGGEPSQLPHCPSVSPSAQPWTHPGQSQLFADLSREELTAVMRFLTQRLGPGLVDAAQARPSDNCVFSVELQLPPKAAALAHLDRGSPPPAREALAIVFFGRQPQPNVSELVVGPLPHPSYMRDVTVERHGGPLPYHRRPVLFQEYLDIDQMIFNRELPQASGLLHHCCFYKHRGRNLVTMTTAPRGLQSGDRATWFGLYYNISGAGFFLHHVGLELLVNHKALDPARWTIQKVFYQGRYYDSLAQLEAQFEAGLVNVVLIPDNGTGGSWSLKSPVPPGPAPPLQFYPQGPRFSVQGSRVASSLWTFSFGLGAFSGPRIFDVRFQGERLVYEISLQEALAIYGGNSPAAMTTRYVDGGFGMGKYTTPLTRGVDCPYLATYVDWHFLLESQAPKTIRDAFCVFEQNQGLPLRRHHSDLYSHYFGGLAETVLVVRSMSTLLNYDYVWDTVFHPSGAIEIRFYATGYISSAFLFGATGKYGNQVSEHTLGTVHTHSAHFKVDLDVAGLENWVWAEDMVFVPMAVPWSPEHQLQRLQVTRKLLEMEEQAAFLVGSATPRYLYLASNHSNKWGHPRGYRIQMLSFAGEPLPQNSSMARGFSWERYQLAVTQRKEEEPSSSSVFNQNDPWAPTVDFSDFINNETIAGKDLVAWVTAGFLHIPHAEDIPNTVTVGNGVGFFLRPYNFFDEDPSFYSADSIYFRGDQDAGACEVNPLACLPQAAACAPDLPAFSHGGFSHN
Assay type: biochemical
Procedure: All primary assays were performed at r.t. with purified recombinantly expressed human SSAO. Enzyme was prepared essentially as described in Öhman et al. (Protein Expression and Purification 46 (2006) 321-331). In addition, secondary- and selectivity assays were performed using SSAO prepared from various tissues or purified rat recombinant SSAO. The enzyme activity was assayed with benzylamine as substrate by measuring either benzaldehyde production, using ^14C-labeled substrate, or by utilizing the production of hydrogen peroxide in a horseradish peroxidise (HRP) coupled reaction. Briefly, test compounds were dissolved in dimethyl sulfoxide (DMSO) to a concentration of 10 mM. Dose-response measurements were assayed by either creating 1:10 serial dilutions in DMSO to produce a 7 point curve or by making 1:3 serial dilutions in DMSO to produce 11 point curves. The top concentrations were adjusted depending on the potency of the compounds and subsequent dilution in reaction buffer yielded a final DMSO concentration ≦2%.
In a horseradish peroxidise (HRP) coupled reaction, hydrogen peroxide oxidation of 10-acetyl-3,7-dihydroxyphenoxazine produced resorufin, which is a highly fluorescent compound (Zhout and Panchuk-Voloshina. Analytical Biochemistry 253 (1997) 169-174; Amplex® Red Hydrogen Peroxide/peroxidise Assay kit, Invitrogen A22188). Enzyme and compounds in 50 mM sodium phosphate, pH 7.4 were set to pre-incubate in flat-bottomed microtiter plates for approximately 15 minutes before initiating the reaction by addition of a mixture of HRP, benzylamine and Amplex reagent. Benzylamine concentration was fixed at a concentration corresponding to the Michaelis constant, determined using standard procedures. Fluorescence intensity was then measured at several time points during 1-2 hours, exciting at 544 nm n and reading the emission at 590 nm. For the human SSAO assay final concentrations of the reagents in the assay wells were: SSAO enzyme 1 μg/ml, benzylamine 100 μM, Amplex reagent 20 μM, HRP 0.1 U/mL and varying concentrations of test compound. The inhibition was measured as % decrease of the signal compared to a control without inhibitor (only diluted DMSO). The background signal from a sample containing no SSAO enzyme was subtracted from all data points. Data was fitted to a four parameter logistic model and IC50 values were calculated using the GraphPad Prism 4 or XLfit 4 programs.
SSAO activity was assayed using 14C-labeled benzylamine and analysed by measuring radioactive benzaldehyde. In a white 96-well optiplate (Packard), 20 μL of diluted test compound was pre-incubated at r.t. with 20 μL SSAO enzyme for approximately 15 minutes with continuous agitation. All dilutions were made with PBS. The reaction was initiated by adding 20 μL of the benzylamine substrate solution containing [7-14C] Benzylamine hydrochloride (CFA589, GE Healthcare). The plate was incubated for 1 hour as above after which the reaction was stopped by acidification (10 μL 1 M HCl). Then 90 μL Micro Scint-E solution (Perkin-Elmer) was added to each well and the plate was continuously mixed for 15 minutes. Phase separation occurred instantly and activity was read in a Topcount scintillation counter (Perkin-Elmer). In the final reaction well, human recombinant SSAO concentration was 10 μg/ml. In order to optimize sensitivity, the substrate concentration was decreased as compared to the HRP coupled assay in order to get a higher fraction of radioactive product. In the human SSAO assay, benzylamine concentration was 40 μM (0.2 μCi/mL). Data was analysed as above.

**Q.** With `Clc1ccc(-n2nc(C3CCN(Cc4cc[nH]n4)CC3)c3ccncc32)cc1` [Compound 89, 4-[1-(4-Chlorophenyl)-1H-pyrazolo[3,4-c]pyridin-3-yl]-1-(1H-pyrazol-3-ylmethyl)piperidine] as the molecule, how does the IC50 read?
**A.** 100 to 500 nM

**Q.** With `Cc1ccc(-n2nc(N3CCCOCC3)c3ccncc32)cc1` [Compound 67, 4-[1-(4-Methylphenyl)-1H-pyrazolo[3,4-c]pyridin-3-yl]-1,4-oxazepane] as the molecule, how does the IC50 read?
**A.** < 100 nM

**Q.** How did the IC50 turn out when `N#Cc1ccc(-n2nc(C3CCOCC3)c3ccncc32)cc1` [Compound 41, 4-[3-(Oxan-4-yl)-1H-pyrazolo[3,4-c]pyridin-1-yl]benzonitrile] was run?
**A.** 500 to 2500 nM

**Q.** With `Fc1ccc(-n2nc(C3CCOCC3)c3ccncc32)cc1` [Compound 83, 1-(4-Fluorophenyl)-3-(oxan-4-yl)-1H-pyrazolo[3,4-c]pyridine] as the molecule, how does the IC50 read?
**A.** 100 to 500 nM

**Q.** Which IC50 does the source give for `NCCC(=O)N1CCC(c2cn(-c3ccc(Cl)cc3)c3cnccc23)CC1` [Compound 17, 3-Amino-1-{4-[1-(4-chlorophenyl)-1H-pyrrolo[2,3-c]pyridin-3-yl]piperidin-1-yl}propan-1-one hydrochloride] here?
**A.** < 100 nM

**Q.** How did the IC50 turn out when `Clc1ccc(-n2nc(N3CCCCC3)c3ccncc32)cc1` [Compound 51, 1-[1-(4-Chlorophenyl)-1H-pyrazolo[3,4-c]pyridin-3-yl]piperidine] was run?
**A.** 500 to 2500 nM

**Q.** With `Cc1ccc(-n2nc(C3CCC(=O)NC3)c3ccncc32)cc1` (stereo not shown) [Compound 87, 5-[1-(4-Methylphenyl)-1H-pyrazolo[3,4-c]pyridin-3-yl]piperidin-2-one] as the molecule, how does the IC50 read?
**A.** 100 to 500 nM

**Q.** How did the IC50 turn out when `COc1cc2c(C3CCOCC3)nn(-c3ccc(Cl)cc3)c2cn1` [Compound 96, 1-(4-Chlorophenyl)-5-methoxy-3-(oxan-4-yl)-H-pyrazolo[3,4-c]pyridine] was run?
**A.** 500 to 2500 nM

**Q.** How did the IC50 turn out when `COC(=O)C1COCCN1c1nn(-c2ccc(C)cc2)c2cnccc12` (stereo not shown) [Compound 66, Methyl 4-[1-(4-methylphenyl)-1H-pyrazolo[3,4-c]pyridin-3-yl]morpholine-3-carboxylate] was run?
**A.** < 100 nM

**Q.** How did the IC50 turn out when `OCc1cn(-c2ccc(Cl)cc2)c2cnccc12` [Compound 23, [1-(4-Chlorophenyl)-1H-pyrrolo[2,3-c]pyridin-3-yl]methanol] was run?
**A.** 500 to 2500 nM

**Q.** How did the IC50 turn out when `Cn1cc(CN2CCC(c3cn(-c4ccc(Cl)cc4)c4cnccc34)CC2)cn1` [Compound 20, 4-[1-(4-Chlorophenyl)-1H-pyrrolo[2,3-c]pyridin-3-yl]-1-[(1-methyl-1H-pyrazol-4-yl)-methyl]piperidine] was run?
**A.** 100 to 500 nM

**Q.** Which IC50 does the source give for `Cc1ccc(-n2nc(N3CCOCC3(C)C)c3ccncc32)cc1` [Compound 65] here?
**A.** 100 to 500 nM

**Q.** How did the IC50 turn out when `Clc1ccc(-n2cc(CN3CCNCC3)c3ccncc32)cc1` [Compound 26, 1-{[1-(4-Chlorophenyl)-1H-pyrrolo[2,3-c]pyridin-3-yl]methyl}piperazine] was run?
**A.** 500 to 2500 nM

**Q.** Which IC50 does the source give for `Cc1ccc(-n2nc(N3CCOC(CN)C3)c3ccncc32)cc1` (stereo not shown) [Compound 72, {4-[1-(4-Methylphenyl)-1H-pyrazolo[3,4-c]pyridin-3-yl]morpholin-2-yl}methanamine] here?
**A.** 100 to 500 nM

**Q.** Which IC50 does the source give for `Cc1ccc(-n2nc(C3CCOCC3)c3ccncc32)nc1` [Compound 46, 5-Methyl-2-[3-(oxan-4-yl)-1H-pyrazolo[3,4-c]pyridin-1-yl]pyridine] here?
**A.** 500 to 2500 nM

**Q.** `CC1CN(c2nn(-c3ccc(Cl)cc3)c3cnccc23)CCO1` (stereo not shown) [Compound 59, 4-[1-(4-Chlorophenyl)-1H-pyrazolo[3,4-c]pyridin-3-yl]-2-methylmorpholine] was tested. Which IC50 did it give?
**A.** < 100 nM

**Q.** For `Fc1ccc(-n2cc(C3CCOCC3)c3ccncc32)cc1` [Compound 100, 1-(4-Fluorophenyl)-3-(oxan-4-yl)-1H-pyrrolo[2,3-c]pyridine], which IC50 is on record?
**A.** 100 to 500 nM

**Q.** Which IC50 does the source give for `Cc1ccc(-n2nc(N3CCOCC3)c3ccncc32)cc1` [Compound 57, 2,2,2-Trifluoroacetic acid; 4-[1-(4-methylphenyl)-1H-pyrazolo[3,4-c]pyridin-3-yl]morpholine] here?
**A.** < 100 nM

**Q.** How did the IC50 turn out when `Cc1ccc(-n2nc(C3COCCN3)c3ccncc32)cc1` (stereo not shown) [Compound 85, 3-[1-(4-Methylphenyl)-1H-pyrazolo[3,4-c]pyridin-3-yl]morpholine] was run?
**A.** 500 to 2500 nM

**Q.** `COC1CCN(c2nn(-c3ccc(C)cc3)c3cnccc23)C1` (stereo not shown) [Compound 50, 3-Methoxy-1-[1-(4-methylphenyl)-1H-pyrazolo[3,4-c]pyridin-3-yl]pyrrolidine] was tested. Which IC50 did it give?
**A.** < 100 nM

**Q.** Which IC50 does the source give for `Oc1cncc2c1c(C1CCOCC1)nn2-c1ccc(Cl)cc1` [Compound 95, 1-(4-Chlorophenyl)-3-(oxan-4-yl)-1H-pyrazolo[3,4-c]pyridin-4-ol] here?
**A.** 100 to 500 nM

**Q.** `CC(C)(C)OC(=O)NC1CCC(c2cn(-c3ccc(Cl)cc3)c3cnccc23)CC1` (stereo not shown) [Compound 11, tert-Butyl N-{4-[1-(4-chlorophenyl)-1H-pyrrolo[2,3-c]pyridin-3-yl]cyclohexyl}-carbamate] was tested. Which IC50 did it give?
**A.** 100 to 500 nM

**Q.** For `CN1CCN(Cc2cn(-c3ccc(Cl)cc3)c3cnccc23)CC1` [Compound 24, 1-{[1-(4-Chlorophenyl)-1H-pyrrolo[2,3-c]pyridin-3-yl]methyl}-4-methylpiperazine], which IC50 is on record?
**A.** 500 to 2500 nM

**Q.** `Cc1ccc(-n2c(C)c(C3=CCOCC3)c3ccncc32)cc1` [Compound 107, 3-(3,6-Dihydro-2H-pyran-4-yl)-2-methyl-1-(4-methylphenyl)-1H-pyrrolo[2,3-c]pyridine] was tested. Which IC50 did it give?
**A.** < 100 nM

**Q.** For `Fc1cncc2c1c(C1CCOCC1)nn2-c1ccc(Cl)cc1` [Compound 88, 1-(4-Chlorophenyl)-4-fluoro-3-(oxan-4-yl)-1H-pyrazolo[3,4-c]pyridine], which IC50 is on record?
**A.** 500 to 2500 nM

**Q.** How did the IC50 turn out when `Clc1ccc(-n2cc(C3CCN(Cc4cc[nH]n4)CC3)c3ccncc32)cc1` [Compound 19, 4-[1-(4-Chlorophenyl)-1H-pyrrolo[2,3-c]pyridin-3-yl]-1-(1H-pyrazol-3-ylmethyl)-piperidine] was run?
**A.** 100 to 500 nM

**Q.** How did the IC50 turn out when `Cc1ccc(-n2nc(N3CCOC(C)(C)C3)c3ccncc32)cc1` [Compound 64, 2,2-Dimethyl-4-[1-(4-methylphenyl)-1H-pyrazolo[3,4-c]pyridin-3-yl]morpholine] was run?
**A.** < 100 nM

**Q.** For `NC1CCC(c2cn(-c3ccc(Cl)cc3)c3cnccc23)CC1` (mixture of isomers) [Compound 12, 4-[1-(4-Chlorophenyl)-1H-pyrrolo[2,3-c]pyridin-3-yl]cyclohexan-1-amine hydrochloride], which IC50 is on record?
**A.** < 100 nM

**Q.** With `Cc1cc(Cl)ccc1-n1cc(C2CCC(N)CC2)c2ccncc21` (mixture of isomers) [Compound 13, 4-[1-(4-Chloro-2-methylphenyl)-1H-pyrrolo[2,3-c]pyridin-3-yl]cyclohexan-1-amine hydrochloride] as the molecule, how does the IC50 read?
**A.** 100 to 500 nM

**Q.** Which IC50 does the source give for `Clc1ccc(-n2cc(C3=CCNCC3)c3ccncc32)cc1` [Compound 8, 4-[1-(4-Chlorophenyl)-1H-pyrrolo[2,3-c]pyridin-3-yl]-hydrochloride] here?
**A.** 100 to 500 nM

**Q.** With `OC1CCN(c2nn(-c3ccc(Cl)cc3)c3cnccc23)C1` (stereo not shown) [Compound 49, 1-[1-(4-Chlorophenyl)-1H-pyrazolo[3,4-c]pyridin-3-yl]pyrrolidin-3-ol] as the molecule, how does the IC50 read?
**A.** < 100 nM
